The test system of assay [1] is WT mouse aorta. Description: Force-tension myography, ACH dependent vasorelaxation of phenylephrine pre-constricted WT aortic rings. The class given is cell-based. The source says:
(§1) Animals: Age-matched IL-10 deficient (IL-10(tm/tm)); B6.129P2IL10tm1Cgn/J and control mice (C576L6; WT) were obtained from Jackson Laboratories (Bar Harbor, Me., USA). IL-10(tm/tm) mice used are homozygous for the IL10tm1Cgn targeted mutation. These mice were housed in Association for Assessment and Accreditation of Laboratory Animal Care International accredited facilities and pathogen contact prevention (prophylaxis from infections, inflammatory bowel disease and early mortality) was achieved under specific pathogen-free (SPF) barrier conditions until terminal experiments were carried out. It is known that the pro-inflammatory potential achieved by the lack of IL-10 in this mouse model can be attributed to activation of TNF-α and IL-1β synthesis via IFN-γ, which is produced in massive amounts and also is important inantigen presentation and pathogen death via activation of macrophages. Animals with any signs of inflammatory/infectious disease were ruled out of the study. The study was performed at approximately 3-4 months (young) and 9 months of age or greater (old).
(§2) Vascular endothelial function was assessed using force-tension myography. Mouse aortas were isolated and cleaned in ice-cold Krebs-Ringer-bicarbonate solution containing the following (in mM): 118.3 NaCI, 4.7 KCI, 1.6 CaCl2, 1.2 KH2 PO4, 25 NaHCO3, 1.2 MgSO4, and 11.1 dextrose. Vascular tension changes were determined as previously described (J Appl Physiol, 2000. 89(6): p. 2382-90). Briefly, one end of the aortic rings was connected to a transducer, and the other to a micromanipulator. The aorta was immersed in a bath filled with constantly oxygenated Krebs buffer at 37° C. Equal size thoracic aortic rings (2 mm) were mounted using a microscope, ensuring no damage to the smooth muscle or endothelium. The aortas were passively stretched to an optimal resting tension using the micromanipulator, after which a dose of 60 mM KCI was administered, and repeated after a wash with Krebs buffer. After these washes, the vessels were allowed to equilibrate for 20-30 min. Phenylephrine (1 μM) was administered to induce vasoconstriction. A dose-dependent response (1 nM to 10 μM), with the muscarinic agonist, ACH, was then performed. The responses were repeated in the presence of inhibitors. Relaxation responses were calculated as a percentage of tension following pre-constriction. Sigmoidal dose-response curves were fitted to data with the minimum constrained to 0.
(§3) Vascular Studies. In ex vivo myograph experiments, measured tension represents a balance between vasorelaxant and vasoconstrictor dependent function and mediators. In phenylephrine pre-constricted isolated mouse aorta, ACH stimulates the release of endothelial factors, which mediate vasorelaxation as a result of greater relaxation than constriction.

For assay [2], the system named is IL-10(tm/tm) mouse aorta. Description: Force-tension myography, ACH dependent vasorelaxation of phenylephrine pre-constricted IL-10(tm/tm) aortic rings. The class given is cell-based. The note with it: for EC50 / Emax: Mus musculus; for Effect on endothelial dependent vasorelaxation / Effect on vasoconstrictive responses to ACH: old IL-10(tm/tm) aortas.
Text: as §1, §2, §3

[3] abbreviates: pre-incubation with 100 nM SQ29548.
The mark [4] stands for this setting: pre-incubation with 3 μM indomethacin.
Where [5] appears, read: pre-incubation with 5 μM nimesulide.

“Also recorded” adds a separate entry of the source. Read-outs that look alike come from different tables or passages of the source.

As usually defined, the EC50 is the concentration needed to bring the measured effect to its halfway point. As a reminder, the Emax is the size of the effect at its maximum, as opposed to the concentration needed. Regarding `CC(=O)OCC[N+](C)(C)C` [ACH, Acetylcholine], the EC50 in assay [1] (old WT mice aortas, n=6, read-out: EC50 of ACH mediated vasorelaxation) was determined as 251 nM; in assay [1] (young WT mice aortas, phenylephrine pre-constricted, read-out: EC50 of ACH dose response (vasorelaxation)), 126 nM; in assay [2] (old IL-10(tm/tm) mice aortas, n=6, read-out: EC50 of ACH mediated vasorelaxation), 39.4 nM; in assay [2] (young IL-10(tm/tm) mice aortas, phenylephrine pre-constricted, read-out: EC50 of ACH dose response (vasorelaxation)), 50.1 nM. Further, the Emax in assay [1] (old WT mice aortas, n=6, read-out: Emax of ACH mediated vasorelaxation) was found to be 98.5 ± 14.1%; in assay [1] (young WT mice aortas, phenylephrine pre-constricted, read-out: Emax of ACH dose response (vasorelaxation)), 80.9 ± 4.6%; in assay [2] (old IL-10(tm/tm) mice aortas, n=6, read-out: Emax of ACH mediated vasorelaxation), 30.7 ± 9.3%; in assay [2] (young IL-10(tm/tm) mice aortas, phenylephrine pre-constricted, read-out: Emax of ACH dose response (vasorelaxation)) it was 71.9 ± 5.7%.

Consider `O=C(O)CCC/C=C\C[C@@H]1[C@H](CNNC(=O)Nc2ccccc2)[C@H]2CC[C@@H]1O2` [SQ29548], for which, in assay [2] (setting [3]), the “Effect on endothelial dependent vasorelaxation” value is reported as “enhanced endothelial dependent vasorelaxation; also recorded: significantly improved endothelial dependent vasorelaxation” and the “Effect on vasoconstrictive responses to ACH” value (shortened to “Effect … to ACH”) is on record as “abolished the vasoconstrictive responses”.

For the molecule `COc1ccc2c(c1)c(CC(=O)O)c(C)n2C(=O)c1ccc(Cl)cc1` [indomethacin], in assay [2] (setting [4]), the “Effect on endothelial dependent vasorelaxation” value is “significantly improved endothelial dependent vasorelaxation” and the “Effect … to ACH” value is given as “abolished the vasoconstrictive responses”.

`CS(=O)(=O)Nc1ccc([N+](=O)[O-])cc1Oc1ccccc1` [nimesulide]: in assay [2] (setting [5]), the “Effect on endothelial dependent vasorelaxation” value is “enhanced endothelial dependent vasorelaxation; also recorded: significantly improved endothelial dependent vasorelaxation” and the “Effect … to ACH” value is on record as “abolished the vasoconstrictive responses”.

The values above are taken from patent US20130121961A1, “TREATMENT MODALITIES TO PREVENT OR TREAT LOSS OF CARDIOVASCULAR FUNCTION IN AGING HUMANS” (THE JOHNS HOPKINS UNIVERSITY, priority 2011, published 2013).
